# Results: paper PMC12243099, “Thieno[2,3-b]pyridine compounds potently inhibit prostate cancer growth and motility” (Endocrine Oncology, 2025)
# pIC50: −log10 of the molar value.
# Key:
# LNCaP = assay: Crystal violet proliferation assay, LNCaP; type: cell-based; conditions: AR positive, 72 h treatment, mean
# Procedure: (§1) Cells were seeded at a density of 2 × 10^4 in 96-well plates and left to adhere overnight before treatment with the inhibitors. After 72 h of treatment, cells were fixed in 2% paraformaldehyde for 1 h, washed 3× with ddH2O and left to dry. 0.04% crystal violet (dissolved in ddH2O) was added to each well and the plates incubated for 1 h. The plates were again washed 3× with ddH2O and left to dry. Crystal violet was solubilised with 10% acetic acid (1 h at room temperature with rocking) and the optical density of each well measured at 570 nm with a plate reader (CLARIOstar, BMG Labtech, Germany).
# (§2) (A) The non-tumorigenic controls PNT1A and BPH1, and prostate cancer cell lines LNCaP, C42, C42B, 22RV1, DU145 and PC3 were seeded 24 h before treatment with a dose range of the thieno[2,3-b]pyridine compounds (DJ97, DJ144, DJ145, DJ154 and DJ160). After 72 h of treatment, cells were fixed, stained with crystal violet and absorbance measured using a spectrophotometer microplate reader (FLUOstar Omega) at 490 nm. Mean ± SE of three independent repeats (six replicates for each concentration per experiment). (B) Western blotting was performed on lysates from the different cell lines and membranes probed with antibodies specific for PLCγ1, PLCγ2, AR and ⍺-tubulin. (C) PC3 cells were seeded in 10 cm plates and treated with a dose range of DJ160 for 24 h. Cells were collected and PLC activity measured, and enzymatic activity calculated. Mean of 3 repeats ± SD. TEXT PRINTED IN THE PICTURE: (C) DJ160: PLC activity (mol/min): 0.19 ± 0.005 (DJ160 (μM): 0); PLC activity (mol/min): 0.19 ± 0.005 (DJ160 (μM): 0.01); PLC activity (mol/min): 0.17 ± 0.005 (DJ160 (μM): 0.1); PLC activity (mol/min): 0.23 ± 0.004 (DJ160 (μM): 1); PLC activity (mol/min): 0.22 ± 0.010 (DJ160 (μM): 10)
# C42B = assay: Crystal violet proliferation assay, C42B; type: cell-based; conditions: AR positive, 72 h treatment, mean
# Procedure: as §1, §2
# 22RV1 = assay: Crystal violet proliferation assay, 22RV1; type: cell-based; conditions: Homo sapiens; 22RV1, AR positive; 72 h treatment; mean
# Procedure: as §1, §2
# C42 = assay: Crystal violet proliferation assay, C42; type: cell-based; conditions: C42, AR positive, 72 h treatment, mean
# Procedure: as §1, §2
# DU145 = assay: Crystal violet proliferation assay, DU145; type: cell-based; conditions: Homo sapiens, DU-145; DU145, AR negative; 72 h treatment; mean
# Procedure: as §1, §2
# PC3 = assay: Crystal violet proliferation assay, PC3; type: cell-based; conditions: PC3, AR negative, 72 h treatment, mean
# Procedure: as §1, §2
# PNT1A = assay: Crystal violet proliferation assay, PNT1A; type: cell-based; conditions: Homo sapiens, non-tumorigenic, 72 h treatment, mean
# Procedure: as §1, §2
# BPH1 = assay: Crystal violet proliferation assay, BPH1; type: cell-based; conditions: BPH1, non-tumorigenic, 72 h treatment, mean; for pIC50: Homo sapiens, BPH-1
# Procedure: as §1, §2
# PC3 cells [1] = assay: Cell cycle analysis (PI staining, flow cytometry); type: cell-based; conditions: 1 μM, 24 h
# Procedure: Cells were seeded in 12-well plates, incubated overnight and treated with the inhibitors. The cells were incubated for 72 h before harvesting. Cells were pelleted (200 g, 5 min) and washed with PBS. The wash was removed and cells fixed with 70% EtOH, added dropwise with agitation. The cells were incubated at 4°C overnight, pelleted, washed with PBS and resuspended in PBS containing PI and RNase A, as previously described ([Brooke et al. 2011]). The percentage of cells in each phase of the cell cycle was subsequently quantified using an Accuri C6 Flow Cytometer (BD Biosciences, USA).
# Figure 3 The thieno[2,3-b]pyridine compounds promote G2/M cell cycle arrest in PC3 cells. PC3 cells were seeded at 30% confluence for 48 h and treated with 1 μM of the compounds (97, 144, 145, 154 and 160) or DMSO for (A) 24, (B) 48 and (C) 72 h. Cells were PI stained and DNA content measured using flow cytometry. The percentage of cells in each phase was calculated and representative histograms generated using the ACCURI C6 software (BD Biosciences). Data are the mean of three independent repeats.
# [2] = test system: cultured human prostate tumours; assay: Patient-derived tumour explants, immunohistochemistry of cleaved caspase 3; type: cell-based; conditions: explants of four patients, no/minimal apoptosis in patients 1 and 2
# Procedure: (§3) Explant experiments were undertaken using published methodology ([Centenera et al. 2018]). Biopsy tissue from prostate cancer patients was immediately placed in ice-cold medium straight from surgery. In the lab, tissue was dissected and seeded onto a sponge (SSP101010-32, Surgispon, Anser Medical) in 24-well plates. The explants were treated with compound 160 (100 nM) or the antiandrogen enzalutamide (10 μM) and incubated at 37°C for 48 h.
# The explants were formalin fixed and wax embedded. Immunohistochemistry was performed to investigate the expression of cleaved caspase 3 (Cell Signalling 9661S (1/200)) as a marker of apoptosis. Protein expression was detected using the REAL EnVision Detection System (Peroxidase/DAB, K500711-2, DAKO).
# Figure 7 Thieno[2,3-b]pyridine DJ160 inhibits activity in cultured human prostate tumours. Tumours were dissected into 1 mm^3 pieces then treated with the drugs (100 nM DJ160 and 10 μM enzalutamide (ENZA)) or vehicle control (DMSO, VC) and incubated for 48 h. (A) RNA was extracted and qPCR was performed to quantify the expression of PCNA, used as a marker of proliferation. (B) Samples were formalin-fixed and immunohistochemistry performed for cleaved caspase 3 and the number of cells per field counted. Example images for patient 3 are provided (20× magnification).
# breast cancer cell lines = conditions: across various breast cancer cell lines; cited from earlier work
# PC3 cells [3] = assay: Fluorescent imaging: multinucleation and cell size; type: cell-based; conditions: 1 μM, 24 h, no multinucleation without inhibitors
# Procedure: Cells were seeded on glass coverslips and incubated overnight before treatment with the compounds. Cells were incubated for 24 h with the thieno[2,3-b]pyridines and fixed with 2% paraformaldehyde for 15 min at RT. Cells were washed 3 times with PBS and 0.1% Triton X-100 in PBS added for 10 min at RT. The washes were repeated and cells blocked with 1% BSA in 0.5% Tween for 30 min. Primary antibody (α-alpha-tubulin, clone B-5-1-2, Sigma Aldrich, USA) was diluted in the block buffer, added to the cells and incubated for 1 h. The cells were washed 3 times with PBS containing 0.5% Tween and secondary antibody applied (anti-mouse Alexa Fluor 568, Abcam, UK). […] To calculate the percentage of cells with multinucleation, ten random fields of view were imaged per slide using low magnification (10×) and the number of cells with more than 1 nucleus counted. Alterations in cell size were quantified using Fiji ([Schindelin et al. 2012]).
# Figure 5 The thieno[2,3-b]pyridine compounds promote multinucleation and lead to an increase in cell size. […] Cells were PI stained and DNA content was measured using flow cytometry. […] Confocal microscopy was performed and five random images were taken for each treatment to quantify (C) percentage multinucleation and (D) relative cell size. […]
# [4] = test system: cultured human prostate tumours; assay: Patient-derived tumour explants, qPCR of PCNA (proliferation marker); type: cell-based; conditions: explants of four patients, 100 nM DJ160, 48 h
# Procedure: as §3
# Explants were snap frozen until RNA was extracted using a Monarch RNA extraction kit (NEB), following disruption of frozen tissue utilising mechanical disruption and enzymatic digestion with proteinase K. Then, 2 μg of RNA was reverse transcribed using Precision Nanoscript2 RT Kit (Primer Design, UK). Changes in gene expression were measured using SYBR Green Fast Master Mix (Life Technologies, USA) and QuantStudio 7 Flex Real-Time PCR System (Applied Biosystems, USA). […]
# Figure 7 Thieno[2,3-b]pyridine DJ160 inhibits activity in cultured human prostate tumours. […] (A) RNA was extracted and qPCR was performed to quantify the expression of PCNA, used as a marker of proliferation. (B) Samples were formalin-fixed and immunohistochemistry performed for cleaved caspase 3 and the number of cells per field counted. […]
# PLC = PLC activity assay in treated PC3 cells; type: cell-based; conditions: 24 h; for PLC activity: mean of 3 repeats ± SD, 0 μM control 0.19 ± 0.005
# Procedure: PC3 cells were grown in 10 cm dishes and treated with different concentrations of DJ160 for 24 h. Cells were collected and enzymatic activity quantified using a PLC Activity Assay Kit (Sigma Aldrich), following the manufacturer’s instructions.
# as §2
"pIC50 (LNCaP; Homo sapiens, 72 h)",pIC50 (22RV1),pIC50 (DU145),"pIC50 (PC3; Homo sapiens, 72 h)",SMILES,pIC50 (C42B),"pIC50 (C42; C4-2, 72 h)",pIC50 (PNT1A),IC50 (nM) (BPH1),pIC50 (BPH1),G2/M cell cycle arrest (PC3 cells [1]),other results
6.32,6.51,5.86,6.24,Nc1c(C(=O)Nc2cccc(Cl)c2)sc2nc3c(cc12)C(=O)CCC3 [DJ97],6.48,6.48,6.49,μM range,5.45,,
7.23,6.73,6.57,6.67,COc1cccc(NC(=O)c2sc3nc4c(cc3c2N)C(=O)CCC4)c1 [DJ144],6.82,6.73,6.62,,6.35,most pronounced effect,
6.57,6.30,5.71,6.17,Nc1c(C(=O)Nc2cccc(Br)c2)sc2nc3c(cc12)C(=O)CCC3 [DJ145],6.64,6.33,6.15,μM range,5.36,,

# Further lines, the compound ahead of its results:
SMILES,"pIC50 (LNCaP; Homo sapiens, 72 h)",pIC50 (22RV1),pIC50 (DU145),"pIC50 (PC3; Homo sapiens, 72 h)",pIC50 (C42B),"pIC50 (C42; C4-2, 72 h)",pIC50 (PNT1A),IC50 (nM) (BPH1),pIC50 (BPH1),G2/M cell cycle arrest (PC3 cells [1]),other results
Nc1c(C(=O)Nc2cccc(Cl)c2)sc2nc3c(cc12)CCCC3 [DJ154],6.35,6.28,6.18,6.14,6.29,6.61,6.04,,6.09,,
Cc1c(Cl)cccc1NC(=O)c1sc2nc3c(cc2c1N)C(=O)CCC3 [DJ160],> 7.30,7.00,7.08,> 7.30,7.27,> 7.30,7.08,,6.82,most pronounced effect,"pIC50 (LNCaP): 7.35; cleaved caspase 3-positive cells (apoptosis) ([2]; 100 nM DJ160, 48 h): increase in the percentage of cleaved caspase-positive cells in patient samples 3 and 4; pIC50 (breast cancer cell lines): < 7.00; pIC50 (C42): 7.54; percentage of cells with multinucleation (PC3 cells [3]): more than 30%; pIC50 (PC3): 7.33; reduction of PCNA expression compared to untreated samples [4]: approximately 80%; PLC activity (PLC; DJ160 0.01 μM): 0.19 ± 0.005 mol/min; PLC activity (PLC; DJ160 0.1 μM): 0.17 ± 0.005 mol/min; PLC activity (PLC; DJ160 1 μM): 0.23 ± 0.004 mol/min; PLC activity (PLC; DJ160 10 μM): 0.22 ± 0.010 mol/min; effect upon pan-PLC activity (PLC; dose range): little effect"
"CNC(=O)c1ccc(N2C(=S)N(c3ccc(C#N)c(C(F)(F)F)c3)C(=O)C2(C)C)cc1F [enzalutamide, reference compound]",,,,,,,,,,,"cleaved caspase 3-positive cells (apoptosis) ([2]; 10 μM enzalutamide, 48 h): increase in the percentage of cleaved caspase-positive cells in patient samples 3 and 4"
